This note sets out measurements from US8901118B2, “Compounds and methods for kinase modulation, and indications therefor” (Plexxikon Inc., priority 2010, dated 2014).

For this experiment, the target named is T1, CYP1A2 (Homo sapiens, UniProt P05177).
T1 sequence (P05177 1-516): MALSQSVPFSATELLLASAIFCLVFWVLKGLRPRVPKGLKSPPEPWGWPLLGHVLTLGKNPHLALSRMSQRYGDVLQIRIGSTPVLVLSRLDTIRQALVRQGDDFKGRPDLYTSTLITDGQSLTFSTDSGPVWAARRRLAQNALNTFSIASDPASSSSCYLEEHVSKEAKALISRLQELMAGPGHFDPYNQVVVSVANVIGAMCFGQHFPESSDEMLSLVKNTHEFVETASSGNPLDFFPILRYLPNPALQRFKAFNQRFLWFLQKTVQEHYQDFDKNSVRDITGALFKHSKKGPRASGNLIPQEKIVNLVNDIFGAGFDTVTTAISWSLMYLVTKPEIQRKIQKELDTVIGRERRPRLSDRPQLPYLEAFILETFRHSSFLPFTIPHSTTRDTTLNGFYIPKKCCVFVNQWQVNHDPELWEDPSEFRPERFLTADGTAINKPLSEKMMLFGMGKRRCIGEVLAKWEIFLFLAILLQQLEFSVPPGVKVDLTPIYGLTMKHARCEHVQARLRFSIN
Put plainly: CYP1A2 inhibition (fluorescent substrate CEC). It is filed as in vitro ADME. The following applies: read-out: Cyp IC50 1A2. Here is the method: CYP (Cytochrome P450) enzymes are the major drug metabolizing enzymes present in the liver. The inhibition of CYP enzyme activity (IC50) for each of CYP1A2, CYP2C19, CYP2C9, CYP2D6, CYP3A4(BFC) and CYP3A4(BQ) is determined for compounds, where inhibition of metabolism of a known substrate leads to a decrease in the fluorescence of the metabolized product. The fluorescence of the product is monitored as a function of compound concentration. Compounds are dissolved in DMSO to a concentration of 100 mM. These are diluted 1 μL into 82 μL of acetonitrile. An 11 μL aliquot of this solution is then added to 204 μL of cofactor mix (1.3% NADPH Regeneration system Solution A, 1.04% NADPH Regeneration system Solution B from BD Biosciences, 5% acetonitrile and 0.05% DMSO). These are then serially diluted 1:1 (160 μL to 160 μL co-factor mix) for a total of 10 points. A 10 μL aliquot of this final mixture is dispensed into 384 well assay plates and incubated for 10 minutes at 37° C. […] Assay plates are incubated at 37° C. (CYP1A2-15 min; CYP2C9-45 min; CYP2C19, 2D6 and 3A4-30 min) and read in a Tecan Safire 2 plate reader (CYP1A2, 2C19 and 3A4 409 ex/460 em; CYP2C9 and 2D6 409 ex/530 em). The signal versus compound concentration is used to determine the IC50. The enzymes and substrates for this assay are obtained from BD Biosciences.

Usually IC50 stands for the concentration needed to halve the response being measured. Regarding `CC1CCC(Nc2ncc(Cc3c[nH]c4ncc(Cl)cc34)cn2)CC1` (centres unmarked) [Compound P-3009, [5-(5-Chloro-1H-pyrrolo[2,3-b]pyridin-3-ylmethyl)-pyrimidin-2-yl]-(4-methyl-cyclohexyl)-amine], the IC50 is over 10 µM.

Turning to `Cc1cnc2[nH]cc(Cc3cnc(Nc4ccc(F)cc4)nc3)c2c1` [Compound P-3010, (4-Fluoro-phenyl)-[5-(5-methyl-1H-pyrrolo[2,3-b]pyridin-3-ylmethyl)-pyrimidin-2-yl]-amine], the IC50 was over 10 µM.

With `Clc1ccc(Nc2ncc(Cc3c[nH]c4ncc(Cl)cc34)cn2)cc1` [Compound P-3011, (4-Chloro-phenyl)-[5-(5-chloro-1H-pyrrolo[2,3-b]pyridin-3-ylmethyl)-pyrimidin-2-yl]-amine], the IC50 was over 10 µM.

As to `Fc1ccc(Nc2ncc(Cc3c[nH]c4ncc(Cl)cc34)cn2)cc1` [Compound P-3012, [5-(5-Chloro-1H-pyrrolo[2,3-b]pyridin-3-ylmethyl)-pyrimidin-2-yl]-(4-fluoro-phenyl)-amine], the IC50 is over 10 µM.

Turning to `Fc1nc(NC2CCC(F)(F)CC2)ccc1Cc1c[nH]c2ncc(Cl)cc12` [Compound P-3013, [5-(5-Chloro-1H-pyrrolo[2,3-b]pyridin-3-ylmethyl)-6-fluoro-pyridin-2-yl]-(4,4-difluoro-cyclohexyl)-amine], the IC50 fell in the range of 5 to 10 µM.

As for `O=C(c1ccc(NC2CCC(F)(F)CC2)nc1F)c1c[nH]c2ncnc(NCC(F)(F)F)c12` [Compound P-4061, [6-[(4,4-difluorocyclohexyl)amino]-2-fluoro-3-pyridyl]-[4-(2,2,2-trifluoroethylamino)-7H-pyrrolo[2,3-d]pyrimidin-5-yl]methanone], the IC50 was over 10 µM.

In the case of `CCc1ccc(Nc2ccc(C(=O)c3c[nH]c4ncnc(NCC(C)(C)O)c34)c(F)n2)cn1` [Compound P-4064, [6-[(6-ethyl-3-pyridyl)amino]-2-fluoro-3-pyridyl]-[4-[(2-hydroxy-2-methyl-propyl)amino]-7H-pyrrolo[2,3-d]pyrimidin-5-yl]methanone], the IC50 was over 10 µM.

On to `COc1ccc(Nc2ccc(C(=O)c3c[nH]c4ncnc(NC(C)C)c34)c(F)n2)cn1` [Compound P-4066, [2-fluoro-6-[(6-methoxy-3-pyridyl)amino]-3-pyridyl]-[4-(isopropylamino)-7H-pyrrolo[2,3-d]pyrimidin-5-yl]methanone], for which the IC50 is over 10 µM.

Turning to `COc1ccc(Nc2ccc(C(=O)c3c[nH]c4ncnc(NCC5CC5)c34)c(F)n2)cn1` [Compound P-4067, [4-(cyclopropylmethylamino)-7H-pyrrolo[2,3-d]pyrimidin-5-yl]-[2-fluoro-6-[(6-methoxy-3-pyridyl)amino]-3-pyridyl]methanone], the IC50 was over 10 µM.

With `CCCNc1ncnc2[nH]cc(C(=O)c3ccc(Nc4ccc(OC)nc4)nc3F)c12` [Compound P-4068, [2-fluoro-6-[(6-methoxy-3-pyridyl)amino]-3-pyridyl]-[4-(propylamino)-7H-pyrrolo[2,3-d]pyrimidin-5-yl]methanone], the IC50 was over 10 µM.

Consider `COc1ccc(Nc2ccc(C(=O)c3c[nH]c4ncnc(N5CCCCC5)c34)c(F)n2)cn1` [Compound P-4069, [2-fluoro-6-[(6-methoxy-3-pyridyl)amino]-3-pyridyl]-[4-(1-piperidyl)-7H-pyrrolo[2,3-d]pyrimidin-5-yl]methanone], for which the IC50 was over 10 µM.

With `COc1ccc(Nc2ccc(C(=O)c3c[nH]c4ncnc(N5CCOCC5)c34)c(F)n2)cn1` [Compound P-4070, [2-fluoro-6-[(6-methoxy-3-pyridyl)amino]-3-pyridyl]-(4-morpholino-7H-pyrrolo[2,3-d]pyrimidin-5-yl)methanone], the IC50 was over 10 µM.

Regarding `COc1ccc(Nc2ccc(C(=O)c3c[nH]c4ncnc(NCc5ccc(C(F)(F)F)nc5)c34)c(F)n2)cn1` [Compound P-4071, [2-fluoro-6-[(6-methoxy-3-pyridyl)amino]-3-pyridyl]-[4-[[6-(trifluoromethyl)-3-pyridyl]methylamino]-7H-pyrrolo[2,3-d]pyrimidin-5-yl]methanone], the IC50 was over 10 µM.

For `COc1ccc(Nc2ccc(C(=O)c3c[nH]c4ncnc(N[C@@H](C)c5ccc(F)cc5)c34)c(F)n2)cn1` [Compound P-4072, [2-fluoro-6-[(6-methoxy-3-pyridyl)amino]-3-pyridyl]-[4-[[(1S)-1-(4-fluorophenyl)ethyl]amino]-7H-pyrrolo[2,3-d]pyrimidin-5-yl]methanone], the IC50 was over 10 µM.

Consider `COc1ccc(Nc2ccc(C(=O)c3c[nH]c4ncnc(NCC5CCCO5)c34)c(F)n2)cn1` (centres unmarked) [Compound P-4073, [2-fluoro-6-[(6-methoxy-3-pyridyl)amino]-3-pyridyl]-[4-(tetrahydrofuran-2-ylmethylamino)-7H-pyrrolo[2,3-d]pyrimidin-5-yl]methanone], for which the IC50 was over 10 µM.

Turning to `CCN1CCC(Nc2ncnc3[nH]cc(C(=O)c4ccc(Nc5ccc(OC)nc5)nc4F)c23)CC1` [Compound P-4074, [4-[(1-ethyl-4-piperidyl)amino]-7H-pyrrolo[2,3-d]pyrimidin-5-yl]-[2-fluoro-6-[(6-methoxy-3-pyridyl)amino]-3-pyridyl]methanone], the IC50 was over 10 µM.

Consider `COc1ccc(Nc2ccc(C(=O)c3c[nH]c4ncnc(NC5CCCC5)c34)c(F)n2)cn1` [Compound P-4075, [4-(cyclopentylamino)-7H-pyrrolo[2,3-d]pyrimidin-5-yl]-[2-fluoro-6-[(6-methoxy-3-pyridyl)amino]-3-pyridyl]methanone], for which the IC50 is over 10 µM.

For `COc1ccc(Nc2ccc(C(=O)c3c[nH]c4ncnc(NC5CCC5)c34)c(F)n2)cn1` [Compound P-4076, [4-(cyclobutylamino)-7H-pyrrolo[2,3-d]pyrimidin-5-yl]-[2-fluoro-6-[(6-methoxy-3-pyridyl)amino]-3-pyridyl]methanone], the IC50 is over 10 µM.

With `CCC(CC)Nc1ncnc2[nH]cc(C(=O)c3ccc(Nc4ccc(OC)nc4)nc3F)c12` [Compound P-4077, [4-(1-ethylpropylamino)-7H-pyrrolo[2,3-d]pyrimidin-5-yl]-[2-fluoro-6-[(6-methoxy-3-pyridyl)amino]-3-pyridyl]methanone], the 50% inhibitory concentration (IC50) fell in the range of 5 to 10 µM.

With `CCC(C)Nc1ncnc2[nH]cc(C(=O)c3ccc(Nc4ccc(OC)nc4)nc3F)c12` (centres unmarked) [Compound P-4078, [2-fluoro-6-[(6-methoxy-3-pyridyl)amino]-3-pyridyl]-[4-(sec-butylamino)-7H-pyrrolo[2,3-d]pyrimidin-5-yl]methanone], the IC50 lay within 5 to 10 µM.

Turning to `COCCCNc1ncnc2[nH]cc(C(=O)c3ccc(Nc4ccc(OC)nc4)nc3F)c12` [Compound P-4079, [2-fluoro-6-[(6-methoxy-3-pyridyl)amino]-3-pyridyl]-[4-(3-methoxypropylamino)-7H-pyrrolo[2,3-d]pyrimidin-5-yl]methanone], the IC50 is over 10 µM.

As to `CCCCNc1ncnc2[nH]cc(C(=O)c3ccc(Nc4ccc(OC)nc4)nc3F)c12` [Compound P-4080, [4-(butylamino)-7H-pyrrolo[2,3-d]pyrimidin-5-yl]-[2-fluoro-6-[(6-methoxy-3-pyridyl)amino]-3-pyridyl]methanone], the IC50 is over 10 µM.

With `CCNc1ncnc2[nH]cc(C(=O)c3ccc(Nc4ccc(OC)nc4)nc3F)c12` [Compound P-4081, [4-(ethylamino)-7H-pyrrolo[2,3-d]pyrimidin-5-yl]-[2-fluoro-6-[(6-methoxy-3-pyridyl)amino]-3-pyridyl]methanone], the IC50 is over 10 µM.

For `COc1ccc(Nc2ccc(C(=O)c3c[nH]c4ncnc(NC5CCCCC5)c34)c(F)n2)cn1` [Compound P-4082, [4-(cyclohexylamino)-7H-pyrrolo[2,3-d]pyrimidin-5-yl]-[2-fluoro-6-[(6-methoxy-3-pyridyl)amino]-3-pyridyl]methanone], the half-inhibitory concentration (IC50) was over 10 µM.

As to `CNc1ncnc2[nH]cc(C(=O)c3ccc(Nc4ccc(OC)nc4)nc3F)c12` [Compound P-4083, [2-fluoro-6-[(6-methoxy-3-pyridyl)amino]-3-pyridyl]-[4-(methylamino)-7H-pyrrolo[2,3-d]pyrimidin-5-yl]methanone], the IC50 is over 10 µM.

`O=C(c1ccc(NC2CCC(F)(F)CC2)nc1)c1c[nH]c2ncnc(NCC(F)(F)F)c12` [Compound P-4087, [6-[(4,4-difluorocyclohexyl)amino]-3-pyridyl]-[4-(2,2,2-trifluoroethylamino)-7H-pyrrolo[2,3-d]pyrimidin-5-yl]methanone]: the IC50 was over 10 µM.
